Molecules are shown by their SMILES. Peptide text beside a SMILES is read from it.

The nature of the data set: solubility in typical aqueous buffers. In kind it is physicochemical.

As for `CC(C)C[C@H](NC(=O)[C@H](CO)NC(=O)[C@H](CC(N)=O)NC(=O)[C@@H](NC(=O)[C@H](CCCCN)NC(=O)[C@H](C)NC(=O)[C@@H](NC(=O)[C@H](CCCNC(=N)N)NC(=O)[C@H](CO)NC(=O)[C@H](CO)NC(=O)CN)C(C)C)[C@@H](C)O)C(=O)N[C@@H](CCCNC(=N)N)C(=O)N[C@@H](CCCNC(=N)N)C(=O)N[C@@H](CCCNC(=N)N)C(=O)N[C@@H](CCCCN)C(=O)O` [Borealin^6–20, GSSRVAKTNSLRRRK] (H-GSSRVAKTNSLRRRK-OH), the “solubility (in words)” value was “soluble”.

For the origin of these results see paper PMC5711809, “Bayesian Analysis of MicroScale Thermophoresis Data to Quantify Affinity of Protein:Protein Interactions with Human Survivin” (Scientific Reports, 2017).
